Reference: ChEMBL document CHEMBL5252589, “Bioactive Piperazic Acid-Bearing Cyclodepsipeptides, Lydiamycins E-H, from an Endophytic Streptomyces sp. Associated with Cinnamomum cassia” (J Nat Prod, 2023)
In brackets after ≈: the same amount, converted by molar mass. Activity calls are given as the source filed them. The rule behind the calls is not given here.

What was measured:
PANC-1 [1] = test: Antimetastatic activity in human PANC-1 cells assessed as inhibition of cell migration at 80 uM incubated for 48 hrs by inverted microscope based scratch wound healing assay relative to control; format: functional
PANC-1 [2] = test: Cytotoxicity against human PANC-1 cells assessed as inhibition of cell growth incubated for 72 hrs by MTT assay; format: functional, cell-based; conditions: PANC-1, 72 h
[3] = tested on: Mycobacterium tuberculosis; test: Antibacterial activity against Mycobacterium tuberculosis H37Rv ATCC 27294 assessed as inhibition of bacterial growth; format: functional
PANC-1 [4] = test: Antimetastatic activity in human PANC-1 cells assessed as inhibition of cell migration at 40 uM incubated for 24 hrs by inverted microscope based scratch wound healing assay relative to control; format: functional
PANC-1 [5] = test: Antimetastatic activity in human PANC-1 cells assessed as inhibition of cell migration at 80 uM incubated for 24 hrs by inverted microscope based scratch wound healing assay relative to control; format: functional
PANC-1 [6] = test: Antimetastatic activity in human PANC-1 cells assessed as inhibition of cell migration at 40 uM incubated for 48 hrs by inverted microscope based scratch wound healing assay relative to control; format: functional
PANC-1 [7] = test: Antimetastatic activity in human PANC-1 cells assessed as suppression of cell invasion at 40 to 80 uM incubated for 24 hrs by crystal violet staining based transwell assay; format: functional; conditions: dose 40-80 µM
PANC-1 [8] = test: Antimetastatic activity in human PANC-1 cells assessed as suppression of cell migration incubated for 24 to 48 hrs by inverted microscope based scratch wound healing assay; format: functional; conditions: dose 40-80 µM, time 24-48 hrs
[9] = tested on: Mycobacterium tuberculosis; test: Antibacterial activity against Mycobacterium tuberculosis H37Rv; format: functional
[10] = tested on: Mycobacterium tuberculosis; test: Antibacterial activity against Mycobacterium tuberculosis mc2 6230; format: functional

SMILES | inhibition at 80 µM (PANC-1 [1]) | IC50 (PANC-1 [2]) | MIC [3] | inhibition at 40 µM (PANC-1 [4]) | inhibition at 80 µM (PANC-1 [5]) | inhibition at 40 µM (PANC-1 [6]) | Activity (PANC-1 [7]) | Activity (PANC-1 [8]) | MIC50 [9] | MIC50 [10]
CCCCC[C@H](CC(=O)N1N=C[C@H](O)C[C@H]1C(=O)N[C@H]1COC(=O)[C@@H]2CCCNN2C(=O)[C@H](C)NC(=O)[C@@H](CC(C)C)NC1=O)C(=O)O | 26% | > 100 µM | > 20 µg/mL | 11% | 19% | 11% | Active | – | – | –
CCCC[C@H](CC(=O)N1N=CCC[C@H]1C(=O)N[C@H]1COC(=O)[C@@H]2CCCNN2C(=O)[C@H](C)NC(=O)[C@@H](CC(C)C)NC1=O)C(=O)O | – | > 100 µM | > 20 µg/mL | – | – | – | Active | Dose-Dependent Effect | – | –
CCCCC[C@H](CC(=O)N1N=CCC[C@H]1C(=O)N[C@H]1COC(=O)[C@@H]2CCCNN2C(=O)[C@H](C)NC(=O)[C@@H](CC(C)C)NC1=O)C(=O)O | 49% | > 100 µM | > 20 µg/mL | 36% | 45% | 11% | Active | – | 12.5 µg/mL (≈ 18.8 µM) | 31 µg/mL (≈ 46.7 µM)
CC(C)C[C@H]1NC(=O)[C@@H](NC(=O)[C@@H]2CCC=NN2)COC(=O)[C@@H]2CCCNN2C(=O)[C@H](C)NC1=O | – | > 100 µM | > 20 µg/mL | – | – | – | Active | Dose-Dependent Effect | – | –
CC(C)C[C@H]1NC(=O)[C@@H](NC(=O)[C@@H]2CCC=NN2C(=O)CCC(=O)O)COC(=O)[C@@H]2CCCNN2C(=O)[C@H](C)NC1=O | – | > 100 µM | > 20 µg/mL | – | – | – | Active | Dose-Dependent Effect | – | –
